The values that follow come from ChEMBL document CHEMBL3994611, “Synthesis and biological evaluation of deferiprone-resveratrol hybrids as antioxidants, Aβ1-42 aggregation inhibitors and metal-chelating agents for Alzheimer's disease” (Eur J Med Chem, 2017).

A short description of experiment [1]: Binding affinity to Fe3+ assessed as cumulative stability constant.
Experiment [2] in a line: Binding affinity to Cu2+ assessed as cumulative stability constant.
Experiment [3] in a line: Binding affinity to Zn2+ assessed as cumulative stability constant.
Experiment [4] is described as follows: Binding affinity to CP645 probe-labeled Fe3+ in DMSO/MOPS buffer assessed as concentration of free Fe3+ in solution at 60 uM after 48 hrs by spectrofluorophotometric method.
Experiment [5] is described as follows: Antioxidant activity assessed as ABTS radical scavenging activity incubated for 10 mins under dark condition. In kind it is functional.
Experiment [6] concerns the target T1, Amyloid-beta precursor protein (Homo sapiens, UniProt P05067). Put plainly: Inhibition of HFIP-pretreated amyloid beta (1 to 42) (unknown origin) self-induced aggregation at 20 uM incubated for 24 hrs under dark condition by thioflavin-T based fluorometric assay relative to control.
Experiment [7] concerns the target T1, Amyloid-beta precursor protein. In words: Inhibition of HFIP-pretreated amyloid beta (1 to 42) (unknown origin) self-induced aggregation incubated for 24 hrs under dark condition by thioflavin-T based fluorometric assay.
A short description of experiment [8]: Binding affinity to Fe3+ assessed as inhibition of Fe3+-induced amyloid beta (1 to 42) aggregation by measuring Fe3+-amyloid beta (1 to 42) complex fluorescence at 50 uM incubated for 24 hrs under dark condition by thioflavin-T based fluorometric assay relative to control. Details: scale not given: the % may be the effect or the level left.
Experiment [9] is described as follows: Binding affinity to Cu2+ assessed as inhibition of Cu2+-induced amyloid beta (1 to 42) aggregation by measuring Cu2+-amyloid beta (1 to 42) complex fluorescence at 75 uM incubated for 24 hrs under dark condition by thioflavin-T based fluorometric assay relative to control. More on the design: scale not given: the % may be the effect or the level left.
The nature of experiment [10]: Binding affinity to Fe3+ assessed as disaggregation of Fe3+-induced amyloid beta (1 to 42) aggregation by measuring Fe3+-amyloid beta (1 to 42) complex fluorescence at 50 uM treated 24 hrs after Fe3+ addition measured after 24 hrs incubation under dark condition by thioflavin-T based fluorometric assay relative to control.
A short description of experiment [11]: Binding affinity to Cu2+ assessed as disaggregation of Cu2+-induced amyloid beta (1 to 42) aggregation by measuring Cu2+-amyloid beta (1 to 42) complex fluorescence at 75 uM treated 24 hrs after Cu2+ addition measured after 24 hrs incubation under dark condition by thioflavin-T based fluorometric assay relative to control.
A short description of experiment [12]: Binding affinity to Fe3+ assessed as disaggregation of Fe3+-induced amyloid beta (1 to 42) aggregation at 50 uM incubated for 24 hrs under dark condition by uranyl acetate staining based transmission electron microscopic method.
Experiment [13] is described as follows: Binding affinity to Cu2+ assessed as disaggregation of Cu2+-induced amyloid beta (1 to 42) aggregation at 75 uM incubated for 24 hrs under dark condition by uranyl acetate staining based transmission electron microscopic method.
Experiment [14] in a line: Binding affinity to Fe3+ in DMSO/MOPS buffer assessed as maximal absorbance intensity at iron to ligand ratio of 1:4 by UV-visible spectrophotometric method.
Experiment [15] can be described thus: Binding affinity to Fe3+ assessed as inhibition of Fe3+-induced amyloid beta (1 to 42) aggregation at 50 uM incubated for 24 hrs under dark condition by uranyl acetate staining based transmission electron microscopic method.
A short description of experiment [16]: Binding affinity to Cu2+ assessed as inhibition of Cu2+-induced amyloid beta (1 to 42) aggregation at 75 uM incubated for 24 hrs under dark condition by uranyl acetate staining based transmission electron microscopic method.

The source made the active and inactive calls. The rule behind the calls is not given here.

T1 sequence (P05067 whole entry): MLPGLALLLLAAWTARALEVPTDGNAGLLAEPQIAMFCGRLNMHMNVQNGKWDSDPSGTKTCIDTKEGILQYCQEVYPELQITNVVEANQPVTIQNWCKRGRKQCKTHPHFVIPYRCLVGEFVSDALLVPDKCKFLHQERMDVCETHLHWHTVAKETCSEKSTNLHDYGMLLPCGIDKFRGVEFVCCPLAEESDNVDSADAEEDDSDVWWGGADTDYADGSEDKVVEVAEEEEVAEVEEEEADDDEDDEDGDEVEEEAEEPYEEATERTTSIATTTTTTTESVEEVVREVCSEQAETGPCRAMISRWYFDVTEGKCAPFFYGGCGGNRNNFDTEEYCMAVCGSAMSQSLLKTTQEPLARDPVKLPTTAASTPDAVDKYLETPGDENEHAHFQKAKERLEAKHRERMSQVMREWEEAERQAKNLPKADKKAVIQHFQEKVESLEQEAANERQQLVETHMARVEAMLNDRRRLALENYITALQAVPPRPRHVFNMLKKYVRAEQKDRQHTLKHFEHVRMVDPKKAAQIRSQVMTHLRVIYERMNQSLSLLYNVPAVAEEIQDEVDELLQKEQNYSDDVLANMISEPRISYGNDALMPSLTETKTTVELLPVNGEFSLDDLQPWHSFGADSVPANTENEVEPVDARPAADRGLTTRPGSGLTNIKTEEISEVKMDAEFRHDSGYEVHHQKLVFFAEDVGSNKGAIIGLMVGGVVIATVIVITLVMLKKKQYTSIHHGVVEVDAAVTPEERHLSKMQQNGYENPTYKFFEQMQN

Turning to `Cc1c(O)c(=O)ccn1C`, the K in experiment [1] is 37.2; in [2] it was 21.7; in [3], 13.5. Also, the log free Fe3+ concentration in experiment [4] was -20.6.

On to `Cn1cc(O)c(=O)cc1/C=C/c1ccccc1`, for which the log free Fe3+ concentration in experiment [4] was -19.8. In addition, the IC50 in experiment [5] turned out to be 2.11 µM. Besides, in [6], the inhibition is 21.6%.

In the case of `Cn1cc(O)c(=O)cc1/C=C/c1ccc(O)cc1`, the log free Fe3+ concentration in experiment [4] was -20.1. In addition, the IC50 in experiment [5] worked out at 1.37 µM; in [7] it was 15.4 µM. In addition, in experiment [6], the inhibition was determined as 52.5%.

With `COc1ccccc1/C=C/c1cc(=O)c(O)cn1C`, in experiment [4], the log free Fe3+ concentration is -20.6. Also, the half-inhibitory concentration (IC50) in [5] came to 4.17 µM; in [7], 12.5 µM. The inhibition in experiment [6] is 56.8%.

Turning to `O=c1cc(/C=C/c2cc(O)cc(O)c2)[nH]cc1O`, the log free Fe3+ concentration in experiment [4] is -19.2. Further, the IC50 in [5] came out at 0.88 µM. In addition, in [6], the inhibition amounted to 18.2%.

`Oc1ccc(/C=C/c2cc(O)cc(O)c2)cc1` [RESVERATROL]: in experiment [5], the concentration for half-maximal inhibition (IC50) was found to be 0.76 µM. The Activity is 87% in experiment [8], 86% in experiment [9], 58% in [10] and 35% in experiment [11]. Further, the outcome in experiment [12] and in [13] was Active.

`COc1ccccc1/C=C/c1cc(=O)c(O)c[nH]1`: the log free Fe3+ concentration in experiment [4] was -20.2. Besides, the IC50 came to 6.74 µM in experiment [5] and 16.5 µM in [7]. For the same compound, the inhibition in [6] amounted to 54.9%.

Turning to `COc1cc(/C=C/c2cc(=O)c(O)c[nH]2)cc(OC)c1`, the log free Fe3+ concentration in experiment [4] was -21.6. Also, the IC50 in [5] was found to be 11.4 µM. In [6], the inhibition came to 35.3%.

`O=c1cc(/C=C/c2ccccc2)[nH]cc1O`: in experiment [4], the log free Fe3+ concentration is -21. For the same compound, the IC50 in experiment [5] stood at 4.03 µM. Also, in experiment [6], the inhibition stood at 38.2%.

As to `Cn1cc(O)c(=O)cc1/C=C/c1ccc([N+](=O)[O-])cc1`, the log free Fe3+ concentration in experiment [4] is -18.4. Further, the IC50 in [5] is 19.2 µM.

For `Cn1cc(O)c(=O)cc1/C=C/c1cccc(F)c1`, the log free Fe3+ concentration in experiment [4] was -20.1. In addition, the results for the IC50 in experiment [5] and in experiment [7] were 1.31 µM and 19.4 µM, respectively. Further, the inhibition in experiment [6] is 52.4%.

In the case of `O=c1cc(/C=C/c2ccccc2O)[nH]cc1O`, the log free Fe3+ concentration in experiment [4] is -20.2. Further, the IC50 was determined as 2.21 µM in [5] and 21.8 µM in experiment [7]. In experiment [6], the inhibition was 49.3%.

For `O=c1cc(/C=C/c2cccc(F)c2)[nH]cc1O`, the log free Fe3+ concentration in experiment [4] was -20.2. Further, the IC50 in experiment [5] is 6.29 µM; in experiment [7], 19 µM. Besides, in [6], the inhibition stood at 53.2%.

For `Cn1cc(O)c(=O)cc1/C=C/c1ccccc1O`, in experiment [4], the log free Fe3+ concentration is -20.3. Further, in experiment [5], the IC50 turned out to be 1.83 µM. Further, in experiment [6], the inhibition worked out at 31.1%.

For `O=c1cc(/C=C/c2ccc(O)cc2)[nH]cc1O`, the log free Fe3+ concentration in [4] is -19.6. Moreover, the IC50 came out at 1.73 µM in experiment [5] and 10.7 µM in [7]. Moreover, the inhibition in experiment [6] was determined as 58.4%. Besides, the outcome in [14], in [15], in [16], in experiment [12] and in [13] was Active. The Activity is 62% in experiment [8], 65% in [9], 25% in [10] and 69% in [11].

Regarding `CN(C)c1ccc(/C=C/c2cc(=O)c(O)cn2C)cc1`, in experiment [4], the log free Fe3+ concentration is -19.2. Also, in experiment [5], the half-inhibitory concentration (IC50) is 2.52 µM. In experiment [6], the inhibition is 44.9%.

Regarding `O=c1cc(/C=C/c2ccc([N+](=O)[O-])cc2)[nH]cc1O`, the log free Fe3+ concentration in experiment [4] was -19.5. Moreover, the IC50 in [5] worked out at 4.79 µM.

As to `CCOc1ccc(/C=C/c2cc(=O)c(O)c[nH]2)cc1`, the log free Fe3+ concentration in experiment [4] is -20.1. The values for the concentration for half-maximal inhibition (IC50) in experiment [5] and in experiment [7] were 8.12 µM and 23.4 µM, respectively. Moreover, in experiment [6], the inhibition is 51.5%.

On to `CCOc1ccc(/C=C/c2cc(=O)c(O)cn2C)cc1`, for which the log free Fe3+ concentration in experiment [4] is -19. Moreover, the values for the IC50 in [5] and in experiment [7] were 4.02 µM and 8.94 µM, respectively. In experiment [6], the inhibition turned out to be 65.3%. The Activity in experiment [8] amounted to 64%; in experiment [9], 57%; in experiment [10] it was 16%; in experiment [11], 47%. In addition, the outcome in experiment [15], in experiment [16], in [12] and in [13] was Active.

On to `COc1cc(/C=C/c2cc(=O)c(O)cn2C)cc(OC)c1`, for which the log free Fe3+ concentration in experiment [4] was -21.2. The IC50 in experiment [5] came out at 3.74 µM. Also, the inhibition in experiment [6] was determined as 28.3%.

Consider `Cn1cc(O)c(=O)cc1/C=C/c1ccc(Cl)cc1`, for which, in experiment [4], the log free Fe3+ concentration is -20.8. Besides, the IC50 in [5] turned out to be 5.72 µM. Besides, the inhibition in [6] came out at 14.5%.

Turning to `Cn1cc(O)c(=O)cc1/C=C/c1cc(O)cc(O)c1`, the log free Fe3+ concentration in [4] was -20.1. Also, in experiment [5], the half-maximal inhibitory concentration (IC50) came out at 1.19 µM. In addition, in [6], the inhibition amounted to 22.4%.

As for `O=c1cc(/C=C/c2ccc(Cl)cc2)[nH]cc1O`, the log free Fe3+ concentration in experiment [4] is -19.5. In addition, in experiment [5], the IC50 turned out to be 11.5 µM. For the same compound, the inhibition in experiment [6] came out at 11.6%.

For the compound `Cc1c(C)c2c(c(C)c1O)CCC(C)(C(=O)O)O2` (stereo not drawn) [TROLOX], in experiment [5], the IC50 was determined as 3.89 µM.

In the case of `CN(C)c1ccc(/C=C/c2cc(=O)c(O)c[nH]2)cc1`, in experiment [4], the log free Fe3+ concentration was -20.1. Also, the figures for the IC50 in [5] and in [7] were 3.41 µM and 29.2 µM, respectively. Besides, the inhibition in experiment [6] stood at 49.6%.
